Common to all, as to assay: In vitro antifungal activity (minimum inhibitory concentration)
Holding throughout (assay type): cell-based

Experiment [1] relates to Aspergillus fumigatus ATCC13073. Particulars: read-out: Minimum Inhibitory Concentration (MIC) AF. How it is done:
(§1) The antifungal activities of representative 1,2-dithiin compounds listed below were determined in vitro using three fungal cultures: Candida albicans ATCC10259 (CA), Cryptococcus neoformans ATCC36556 (CN), and Aspergillus fumigatus ATCC13073 (AF).
(§2) The method used to determine in vitro antifungal activity is discussed in McGinnis, M. R., Laboratory Handbook of Medical Mycology, Academic Press, New York, London, p 661 (1980); and Drouget, E.; Dupont, B.; Improvist, L.; Vivian, M. A.; and Tortorano, A. M.; "Disc Agar Diffusion and Microplate Automatized Techniques for In Vitro Evaluation of Antifungal Agents on Yeast and Sporulated Pathogenic Fungi" in In Vitro and In Vivo Evaluation of Antifungal Agents, Eds. lwata, K. and Vanden Bossche, H., Elsevier Science Publishers, New York, Oxford, p. 303 (1986).

Experiment [2] has as its system Cryptococcus neoformans ATCC36556. Particulars: read-out: Minimum Inhibitory Concentration (MIC) CN. How it is done: as §1, §2
The test system of experiment [3] is Candida albicans ATCC10259. Particulars: read-out: Minimum Inhibitory Concentration (MIC) CA. The procedure: as §1, §2

Converted amounts (≈) assume the structure as drawn.

As to `CC1(C)OCC(COCC2=CC=C(COCC3COC(C)(C)O3)SS2)O1` (stereo not drawn) [3,6-Bis[[(2,2-dimethyl-1,3-dioxolan-4-yl)methyloxy]methyl]-1,2-dithiin], the MIC in experiment [1], in experiment [2] and in experiment [3] was over 100 µg/mL in each case.

`O=C(OCC1=CC=C(CO)SS1)c1ccccc1` [3-(Benzoyloxymethyl)-6-(hydroxymethyl)-1,2-dithiin]: the MIC in experiment [1] was 3.1 µg/mL (≈ 11.1 µM); in experiment [2], 3.1 µg/mL (≈ 11.1 µM); in experiment [3], 6.3 µg/mL (≈ 22.5 µM).

For `OCC1=CC=C(COc2cc(C(F)(F)F)ccc2Cl)SS1` [3-(Hydroxymethyl)-6-[(2-chloro-5-trifluoromethyl-phenyloxy)methyl]-1,2-dithiin], the MIC in experiment [1] worked out at 6.3 µg/mL (≈ 17.8 µM); in experiment [2], 1.6 µg/mL (≈ 4.51 µM); in experiment [3], 1.6 µg/mL (≈ 4.51 µM).

With `OCC1=CC=C(COc2ccccc2F)SS1` [3-(Hydroxymethyl)-6-[(2-fluorophenyloxy)methyl]-1,2-dithiin], the MIC in experiment [1] came to 3.1 µg/mL (≈ 11.5 µM); in experiment [2], 1.6 µg/mL (≈ 5.92 µM); in experiment [3] it was 3.1 µg/mL (≈ 11.5 µM).

With `OCC1=CC=C(COc2ccccc2C(F)(F)F)SS1` [3-(Hydroxymethyl)-6-[(2-trifluoromethylphenyloxy)methyl]-1,2-dithiin], the MIC in experiment [1] came out at 50 µg/mL (≈ 156 µM); in experiment [2], 6.3 µg/mL (≈ 19.7 µM); in experiment [3], 25 µg/mL (≈ 78 µM).

Consider `C#Cc1cccc(OCC2=CC=C(CO)SS2)c1` [3-(Hydroxymethyl)-6-[(3-ethynylphenyloxy)methyl]-1,2-dithiin], for which the MIC in experiment [1] stood at 6.3 µg/mL (≈ 22.8 µM); in experiment [2], 1.6 µg/mL (≈ 5.79 µM); in experiment [3], 1.6 µg/mL (≈ 5.79 µM).

Consider `OCC1=CC=C(COc2cccc(O)c2)SS1` [3-(Hydroxymethyl)-6-[(3-hydroxyphenyloxy)methyl]-1,2-dithiin], for which the values for the MIC in experiment [1], in experiment [2] and in experiment [3] were over 100 µg/mL, 100 µg/mL (≈ 373 µM) and 50 µg/mL (≈ 186 µM), respectively.

Take `O=c1ccc(O)nn1CC1=CC=C(CO)SS1` [3-(Hydroxymethyl)-6-[(3-hydroxypyridazin-6-one-1-yl)methyl]-1,2-dithiin]: the MIC in experiment [1], in experiment [2] and in experiment [3] was over 100 µg/mL in each case.

As to `OCC1=CC=C(COc2ccc(O)nn2)SS1` [3-(Hydroxymethyl)-6-[(3-hydroxypyridazine-6-oxy)methyl]-1,2-dithiin], the MIC in experiment [1], in experiment [2] and in experiment [3] was over 100 µg/mL throughout.

For the compound `O=c1ccc([N+](=O)[O-])cn1CC1=CC=C(CO)SS1` [3-(Hydroxymethyl)-6-[(5-nitropyrid-2-one-1-yl)methyl]-1,2-dithiin], the results for the MIC in experiment [1], in experiment [2] and in experiment [3] were over 100 µg/mL, 100 µg/mL (≈ 335 µM) and over 100 µg/mL, respectively.

Regarding `OCC1=CC=C(COc2ccccc2)SS1` [3-(Hydroxymethyl)-6-[(phenyloxy)methyl]-1,2-dithiin], the MIC in experiment [1] came out at 25 µg/mL (≈ 99.1 µM); in experiment [2], 12.5 µg/mL (≈ 49.5 µM); in experiment [3], 25 µg/mL (≈ 99.1 µM).

On to `O=c1ccccn1CC1=CC=C(CO)SS1` [3-(Hydroxymethyl)-6-[(pyrid-2-one-1-yl)methyl]-1,2-dithiin], for which the results for the MIC in experiment [1], in experiment [2] and in experiment [3] were over 100 µg/mL, 12.5 µg/mL (≈ 49.3 µM) and over 100 µg/mL, respectively.

Consider `OCC1=CC=C(COc2ccccn2)SS1` [3-(Hydroxymethyl)-6-[(pyridyl-2-oxy)methyl]-1,2-dithiin], for which the MIC in experiment [1], in experiment [2] and in experiment [3] was 3.1 µg/mL (≈ 12.2 µM) each time.

Regarding `OCC1=CC=C(COc2cccnc2)SS1` [3-(Hydroxymethyl)-6-[(pyridyl-3-oxy)methyl]-1,2-dithiin], the values for the MIC in experiment [1], in experiment [2] and in experiment [3] were 3.1 µg/mL (≈ 12.2 µM), 1.6 µg/mL (≈ 6.32 µM) and 3.1 µg/mL (≈ 12.2 µM), respectively.

As for `CN(C)c1cccc(OCC2=CC=C(CO)SS2)c1` [3-(Hydroxymethyl)-6-[[3-(N,N-dimethylamino)phenyloxy]methyl]-1,2-dithiin], the values for the MIC in experiment [1], in experiment [2] and in experiment [3] were 100 µg/mL (≈ 338 µM), 50 µg/mL (≈ 169 µM) and over 50 µg/mL, respectively.

Regarding `CC1(C)OCC(COCC2=CC=C(CO)SS2)O1` (stereo not drawn) [3-(Hydroxymethyl)-6-[[(2,2-dimethyl-1,3-dioxolan-4-yl)methyloxy]methyl]-1,2-dithiin], the MIC in experiment [1], in experiment [2] and in experiment [3] was over 100 µg/mL throughout.

For the compound `OCC1=CC=C(COCC(O)CO)SS1` (stereo not drawn) [3-(Hydroxymethyl)-6-[methyloxy(2,3-dihydroxypropane-1-yl)]-1,2-dithiin], the MIC in experiment [1], in experiment [2] and in experiment [3] was over 100 µg/mL each time.

Take `OCC1=CC=C(COc2nc3ccccc3nc2O)SS1` [3-(Hydroxymethyl)-6-[methyloxy[3-hydroxyquinoxalin-2-yl]]-1,2-dithiin]: the MIC was found to be 100 µg/mL (≈ 312 µM) in experiment [1], 25 µg/mL (≈ 78 µM) in experiment [2] and 50 µg/mL (≈ 156 µM) in experiment [3].

For the compound `COC(=O)c1ccccc1OCC1=CC=C(CO)SS1` [3-(Hydroxymethyl)-6-[methyloxy[methyl benzoate-2-yl]]-1,2-dithiin], the values for the MIC in experiment [1], in experiment [2] and in experiment [3] were 12.5 µg/mL (≈ 40.3 µM), 6.3 µg/mL (≈ 20.3 µM) and 6.3 µg/mL (≈ 20.3 µM), respectively.

As for `COC(=O)c1cccc(OCC2=CC=C(CO)SS2)c1` [3-(Hydroxymethyl)-6-[methyloxy[methyl benzoate-3-yl]]-1,2-dithiin], the MIC in experiment [1] was determined as 25 µg/mL (≈ 80.5 µM); in experiment [2], 6.3 µg/mL (≈ 20.3 µM); in experiment [3], 3.1 µg/mL (≈ 9.99 µM).

In the case of `OCC1=CC=C(CSc2nnnn2-c2ccc(O)cc2)SS1` [3-(Hydroxymethyl)-6-[methylthio-[1-(4-hydroxyphenyl)tetrazol-5-yl]]-1,2-dithiin], the MIC was 12.5 µg/mL (≈ 35.5 µM) in experiment [1], 6.3 µg/mL (≈ 17.9 µM) in experiment [2] and 25 µg/mL (≈ 70.9 µM) in experiment [3].

For the compound `O=[N+]([O-])c1ccc(OCC2=CC=C(CO)SS2)nc1` [3-(hydroxymethyl)-6-[(5-nitropyridyl-2-oxy)methyl]-1,2-dithiin], the values for the MIC in experiment [1], in experiment [2] and in experiment [3] were 0.4 µg/mL (≈ 1.34 µM), 0.1 µg/mL (≈ 0.335 µM) and 0.2 µg/mL (≈ 0.67 µM), respectively.

With `OCC1=CC=C(COc2ccc(-n3ccnc3)cc2)SS1` [3-(hydroxymethyl)-6-[[4-(imidazol-1-yl)phenyloxy]methyl]-1,2-dithiin], the MIC was 100 µg/mL (≈ 314 µM) in experiment [1], 100 µg/mL (≈ 314 µM) in experiment [2] and 12.5 µg/mL (≈ 39.3 µM) in experiment [3].

On to `COC(=O)c1ccc(OCC2=CC=C(CO)SS2)cc1` [3-(hydroxymethyl)-6-[methyloxy[methyl benzoate-4-yl]]-1,2-dithiin], for which the figures for the MIC in experiment [1], in experiment [2] and in experiment [3] were 12.5 µg/mL (≈ 40.3 µM), 3.1 µg/mL (≈ 9.99 µM) and 3.1 µg/mL (≈ 9.99 µM), respectively.

Regarding `CC1(C)OCC(COCC2=CC=C(COCC(O)CO)SS2)O1` (stereo not drawn) [3-[[(2,2-Dimethyl-1,3-dioxolan-4-yl)methyloxy]methyl]-6-[methyloxy(2,3-dihydroxypropane-1-yl)]-1,2-dithiin], the MIC in experiment [1], in experiment [2] and in experiment [3] was over 100 µg/mL each time.

The values are drawn from patent US5648354A, “1,2-dithiins having antifungal activity” (Shaman Pharmaceuticals, Inc., priority 1995, dated 1997).
